For experiment [1], the target named is T1, Carbonic anhydrase 2 (Homo sapiens, UniProt P00918). The experiment can be described thus: Inhibition of hydratase-activity of human erythrocytes CA2 by CO2-hydration method.
Experiment [2] concerns the target T2, Carbonic anhydrase 1 (Homo sapiens, UniProt P00915). The experiment can be described thus: Inhibition of hydratase-activity of CA1 from human erythrocytes by CO2-hydration method.
The target in experiment [3] is T1, Carbonic anhydrase 2. Kind of experiment: Inhibition of human erythrocytes CA2 by Lineweaver-Burke analysis.
The target in experiment [4] is T2, Carbonic anhydrase 1. The experiment can be described thus: Inhibition of esterase-activity of CA1 from human erythrocytes by spectrophotometry.
Experiment [5] concerns the target T1, Carbonic anhydrase 2. The experiment can be described thus: Inhibition of esterase-activity of human erythrocytes CA2 by spectrophotometry.
The target in experiment [6] is T2, Carbonic anhydrase 1. The experiment can be described thus: Inhibition of CA1 from human erythrocytes by Lineweaver-Burke analysis.

T2 sequence (P00915 whole entry): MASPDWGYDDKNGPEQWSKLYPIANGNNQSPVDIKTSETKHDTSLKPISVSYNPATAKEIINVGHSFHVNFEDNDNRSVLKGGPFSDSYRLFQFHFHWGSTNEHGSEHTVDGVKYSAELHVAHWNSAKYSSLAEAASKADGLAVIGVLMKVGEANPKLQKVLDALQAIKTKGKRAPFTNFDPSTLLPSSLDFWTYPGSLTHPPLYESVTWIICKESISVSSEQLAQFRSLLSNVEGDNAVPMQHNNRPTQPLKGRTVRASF

The term IC50 denotes the concentration needed to halve the response being measured. As to `NS(=O)(=O)c1cc(C(=O)O)c(Cl)cc1Cl`, the IC50 on Carbonic anhydrase 2 [1] (read-out: IC50) amounted to 380 nM; at Carbonic anhydrase 1 [2] (read-out: IC50), 430 nM; on Carbonic anhydrase 2 [3] (read-out: IC50) it was 22000 nM; at Carbonic anhydrase 1 [4] (read-out: IC50), 3200 nM; on Carbonic anhydrase 2 [5] (read-out: IC50) it was 18000 nM; on Carbonic anhydrase 1 [6] (read-out: IC50) it was 7700 nM.

For the compound `NCc1ccccn1`, the IC50 entry against Carbonic anhydrase 2 [1], against Carbonic anhydrase 1 [2], against Carbonic anhydrase 2 [3], at Carbonic anhydrase 1 [4], at Carbonic anhydrase 2 [5] and against Carbonic anhydrase 1 [6] was “Not Active” throughout.

As to `NCc1ccccn1.NS(=O)(=O)c1cc(C(=O)O)c(Cl)cc1Cl`, the IC50 at Carbonic anhydrase 2 [1] (read-out: IC50) turned out to be 300 nM; at Carbonic anhydrase 1 [2] (read-out: IC50) it was 260 nM; on Carbonic anhydrase 2 [3] (read-out: IC50) it was 220 nM; at Carbonic anhydrase 1 [4] (read-out: IC50) it was 320 nM; at Carbonic anhydrase 2 [5] (read-out: IC50), 290 nM; on Carbonic anhydrase 1 [6] (read-out: IC50), 250 nM.

For the origin of these results see ChEMBL document CHEMBL1157726, “Synthesis, characterization and antiglaucoma activity of a novel proton transfer compound and a mixed-ligand Zn(II) complex” (Bioorg Med Chem, 2010).
